Test in all cases: KINOMEscan
Format in all cases: binding
Settings in all cases: read-out: % control activity remaining

One test addresses T1, NEK3 (Homo sapiens, UniProt P51956).
T1 construct: purchased Eurofins DiscoverX KINOMEscan
T1 sequence (P51956 1-506): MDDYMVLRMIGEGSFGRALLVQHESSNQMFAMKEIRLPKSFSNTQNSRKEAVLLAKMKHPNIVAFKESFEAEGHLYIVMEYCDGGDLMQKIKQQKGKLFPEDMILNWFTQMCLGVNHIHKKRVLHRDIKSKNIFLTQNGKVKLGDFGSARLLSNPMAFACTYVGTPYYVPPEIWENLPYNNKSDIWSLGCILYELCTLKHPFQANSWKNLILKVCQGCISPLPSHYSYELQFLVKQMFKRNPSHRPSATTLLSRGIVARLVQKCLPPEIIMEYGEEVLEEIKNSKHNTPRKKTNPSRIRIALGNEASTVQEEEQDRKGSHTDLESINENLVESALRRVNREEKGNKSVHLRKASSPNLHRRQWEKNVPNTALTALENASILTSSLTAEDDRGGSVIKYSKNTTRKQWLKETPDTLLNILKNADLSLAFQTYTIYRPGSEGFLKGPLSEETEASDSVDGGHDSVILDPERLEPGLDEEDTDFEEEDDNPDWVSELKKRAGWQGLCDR

The target of a further test is T2, ERK4 (Homo sapiens, UniProt P31152).
T2 construct: purchased Eurofins DiscoverX KINOMEscan

In the next test the target is T3, DYRK1B (Homo sapiens, UniProt Q9Y463).
T3 construct: purchased Eurofins DiscoverX KINOMEscan

Another test concerns the target T4, MINK (Homo sapiens, UniProt Q8N4C8).
T4 construct: purchased Eurofins DiscoverX KINOMEscan

In a further test the target is T5, STK36 (Homo sapiens, UniProt Q9NRP7).
T5 construct: purchased Eurofins DiscoverX KINOMEscan
T5 sequence (Q9NRP7 1-1315): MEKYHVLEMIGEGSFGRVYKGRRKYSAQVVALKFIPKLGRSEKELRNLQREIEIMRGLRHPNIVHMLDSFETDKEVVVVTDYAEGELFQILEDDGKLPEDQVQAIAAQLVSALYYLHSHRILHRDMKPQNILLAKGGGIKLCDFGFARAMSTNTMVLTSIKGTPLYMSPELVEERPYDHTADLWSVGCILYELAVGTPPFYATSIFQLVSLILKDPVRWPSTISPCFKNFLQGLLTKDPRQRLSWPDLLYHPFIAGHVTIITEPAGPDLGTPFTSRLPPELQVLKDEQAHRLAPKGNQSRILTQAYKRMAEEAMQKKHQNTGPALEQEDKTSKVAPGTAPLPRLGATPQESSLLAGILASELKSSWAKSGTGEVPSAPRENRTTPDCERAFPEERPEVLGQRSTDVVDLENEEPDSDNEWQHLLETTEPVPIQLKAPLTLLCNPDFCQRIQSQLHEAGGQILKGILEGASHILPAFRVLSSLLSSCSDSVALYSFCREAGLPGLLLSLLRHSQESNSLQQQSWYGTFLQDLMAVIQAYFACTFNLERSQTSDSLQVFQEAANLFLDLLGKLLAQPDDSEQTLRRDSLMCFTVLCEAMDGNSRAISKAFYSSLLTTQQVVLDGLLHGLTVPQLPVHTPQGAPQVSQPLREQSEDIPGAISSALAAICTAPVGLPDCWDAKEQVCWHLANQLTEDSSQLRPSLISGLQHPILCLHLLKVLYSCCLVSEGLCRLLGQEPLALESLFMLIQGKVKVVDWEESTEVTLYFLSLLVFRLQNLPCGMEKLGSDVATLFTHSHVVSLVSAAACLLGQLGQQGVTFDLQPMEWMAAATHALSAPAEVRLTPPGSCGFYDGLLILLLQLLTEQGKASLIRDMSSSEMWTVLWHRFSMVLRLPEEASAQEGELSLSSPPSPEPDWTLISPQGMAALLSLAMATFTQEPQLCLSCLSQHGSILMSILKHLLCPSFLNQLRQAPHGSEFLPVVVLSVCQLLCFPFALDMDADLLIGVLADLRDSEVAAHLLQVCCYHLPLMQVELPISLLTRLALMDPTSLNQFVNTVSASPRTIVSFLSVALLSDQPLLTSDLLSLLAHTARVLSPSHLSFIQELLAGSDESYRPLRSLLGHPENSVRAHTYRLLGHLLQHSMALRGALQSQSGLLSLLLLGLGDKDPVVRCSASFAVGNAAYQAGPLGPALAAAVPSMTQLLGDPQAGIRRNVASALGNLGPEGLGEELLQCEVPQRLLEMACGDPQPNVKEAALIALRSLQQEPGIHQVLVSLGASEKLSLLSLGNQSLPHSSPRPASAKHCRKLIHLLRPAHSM

In the next test the target is T6, YANK1 (Homo sapiens, UniProt Q8WU08).
T6 construct: purchased Eurofins DiscoverX KINOMEscan

For a further test, the target named is T7, MAP3K1 (Homo sapiens, UniProt Q13233).
T7 construct: purchased Eurofins DiscoverX KINOMEscan

A further test deals with T8, DMPK2 (Homo sapiens, UniProt Q6DT37).
T8 construct: purchased Eurofins DiscoverX KINOMEscan

Each structure is given as a SMILES string.

T8 sequence (Q6DT37 whole entry): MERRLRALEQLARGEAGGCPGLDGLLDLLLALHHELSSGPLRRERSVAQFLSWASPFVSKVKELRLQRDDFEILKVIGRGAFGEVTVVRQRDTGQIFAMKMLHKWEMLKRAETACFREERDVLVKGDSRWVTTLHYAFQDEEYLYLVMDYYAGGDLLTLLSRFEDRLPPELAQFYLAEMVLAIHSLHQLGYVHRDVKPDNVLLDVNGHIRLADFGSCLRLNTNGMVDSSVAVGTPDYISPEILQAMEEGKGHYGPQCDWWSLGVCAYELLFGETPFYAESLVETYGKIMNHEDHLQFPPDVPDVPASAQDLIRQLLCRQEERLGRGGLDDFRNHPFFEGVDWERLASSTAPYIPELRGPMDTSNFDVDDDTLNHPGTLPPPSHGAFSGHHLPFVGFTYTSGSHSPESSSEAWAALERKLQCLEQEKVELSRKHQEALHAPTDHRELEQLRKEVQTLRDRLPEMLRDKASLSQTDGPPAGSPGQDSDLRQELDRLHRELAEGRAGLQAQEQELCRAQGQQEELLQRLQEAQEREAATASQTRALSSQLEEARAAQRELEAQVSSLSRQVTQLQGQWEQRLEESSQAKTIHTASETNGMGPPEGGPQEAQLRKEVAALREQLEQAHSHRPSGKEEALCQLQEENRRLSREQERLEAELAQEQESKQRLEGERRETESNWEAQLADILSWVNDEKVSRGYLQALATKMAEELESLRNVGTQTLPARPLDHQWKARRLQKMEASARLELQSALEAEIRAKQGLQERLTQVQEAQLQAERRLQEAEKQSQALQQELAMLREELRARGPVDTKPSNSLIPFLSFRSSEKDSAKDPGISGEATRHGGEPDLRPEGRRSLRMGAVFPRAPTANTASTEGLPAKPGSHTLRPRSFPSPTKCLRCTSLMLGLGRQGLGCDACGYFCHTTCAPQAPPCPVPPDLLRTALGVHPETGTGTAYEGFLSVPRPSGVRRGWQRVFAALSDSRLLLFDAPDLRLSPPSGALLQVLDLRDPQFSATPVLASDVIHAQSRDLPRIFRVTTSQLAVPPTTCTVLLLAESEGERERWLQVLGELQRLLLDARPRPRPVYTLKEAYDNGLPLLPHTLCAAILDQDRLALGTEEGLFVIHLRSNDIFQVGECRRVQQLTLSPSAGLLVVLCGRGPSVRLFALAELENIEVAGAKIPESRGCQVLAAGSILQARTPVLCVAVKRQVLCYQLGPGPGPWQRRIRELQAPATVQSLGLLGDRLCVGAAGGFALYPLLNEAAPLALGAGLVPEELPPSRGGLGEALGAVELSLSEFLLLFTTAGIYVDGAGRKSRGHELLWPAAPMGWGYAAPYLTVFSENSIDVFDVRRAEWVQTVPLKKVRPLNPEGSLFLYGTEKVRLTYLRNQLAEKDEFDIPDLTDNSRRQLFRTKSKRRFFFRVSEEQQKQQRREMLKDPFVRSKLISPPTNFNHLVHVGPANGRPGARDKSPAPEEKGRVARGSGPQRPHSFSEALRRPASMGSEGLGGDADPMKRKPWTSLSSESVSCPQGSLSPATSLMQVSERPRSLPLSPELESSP
T2 sequence (P31152 whole entry): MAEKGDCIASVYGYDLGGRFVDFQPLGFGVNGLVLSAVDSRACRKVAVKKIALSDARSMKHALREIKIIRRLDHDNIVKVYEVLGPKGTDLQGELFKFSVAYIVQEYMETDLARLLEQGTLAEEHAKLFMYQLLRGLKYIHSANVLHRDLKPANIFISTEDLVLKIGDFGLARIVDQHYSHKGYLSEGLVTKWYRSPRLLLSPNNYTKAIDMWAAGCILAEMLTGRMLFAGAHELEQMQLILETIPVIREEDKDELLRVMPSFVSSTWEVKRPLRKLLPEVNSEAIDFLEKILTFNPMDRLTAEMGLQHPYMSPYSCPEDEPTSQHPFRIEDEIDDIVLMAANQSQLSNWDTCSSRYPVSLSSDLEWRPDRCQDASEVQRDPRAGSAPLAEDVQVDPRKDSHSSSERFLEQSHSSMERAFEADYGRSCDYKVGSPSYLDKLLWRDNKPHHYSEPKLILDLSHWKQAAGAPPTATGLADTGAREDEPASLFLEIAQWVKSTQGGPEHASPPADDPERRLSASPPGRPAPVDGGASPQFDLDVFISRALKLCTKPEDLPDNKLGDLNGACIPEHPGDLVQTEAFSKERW
T3 sequence (Q9Y463 whole entry): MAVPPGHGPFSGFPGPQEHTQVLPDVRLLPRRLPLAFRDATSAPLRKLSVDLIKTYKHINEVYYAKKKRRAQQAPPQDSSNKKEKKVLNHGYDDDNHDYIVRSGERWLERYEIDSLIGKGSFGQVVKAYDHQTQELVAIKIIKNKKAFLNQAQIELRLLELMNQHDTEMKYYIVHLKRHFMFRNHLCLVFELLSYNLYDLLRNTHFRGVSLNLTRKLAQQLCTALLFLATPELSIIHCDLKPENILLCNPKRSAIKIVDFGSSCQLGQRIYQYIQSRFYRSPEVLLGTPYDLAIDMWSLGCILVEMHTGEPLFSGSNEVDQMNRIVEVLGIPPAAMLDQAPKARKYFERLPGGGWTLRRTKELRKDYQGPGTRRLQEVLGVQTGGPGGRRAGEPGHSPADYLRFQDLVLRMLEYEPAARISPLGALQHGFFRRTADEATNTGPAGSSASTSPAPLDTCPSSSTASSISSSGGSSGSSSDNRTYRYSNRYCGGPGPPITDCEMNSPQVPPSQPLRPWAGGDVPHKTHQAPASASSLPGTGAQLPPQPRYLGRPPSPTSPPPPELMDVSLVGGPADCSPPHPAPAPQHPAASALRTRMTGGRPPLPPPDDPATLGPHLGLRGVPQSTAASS
T6 sequence (Q8WU08 whole entry): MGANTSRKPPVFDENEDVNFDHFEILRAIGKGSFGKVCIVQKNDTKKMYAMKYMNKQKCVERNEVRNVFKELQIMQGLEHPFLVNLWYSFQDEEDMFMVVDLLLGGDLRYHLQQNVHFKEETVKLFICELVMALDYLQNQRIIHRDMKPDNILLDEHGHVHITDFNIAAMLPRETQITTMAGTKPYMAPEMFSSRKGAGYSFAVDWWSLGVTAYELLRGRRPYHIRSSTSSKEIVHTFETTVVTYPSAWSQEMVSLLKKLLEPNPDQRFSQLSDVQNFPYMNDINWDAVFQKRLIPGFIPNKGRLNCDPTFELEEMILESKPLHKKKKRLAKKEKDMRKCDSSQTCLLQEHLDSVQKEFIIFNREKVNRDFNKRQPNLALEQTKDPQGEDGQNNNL
T4 sequence (Q8N4C8 whole entry): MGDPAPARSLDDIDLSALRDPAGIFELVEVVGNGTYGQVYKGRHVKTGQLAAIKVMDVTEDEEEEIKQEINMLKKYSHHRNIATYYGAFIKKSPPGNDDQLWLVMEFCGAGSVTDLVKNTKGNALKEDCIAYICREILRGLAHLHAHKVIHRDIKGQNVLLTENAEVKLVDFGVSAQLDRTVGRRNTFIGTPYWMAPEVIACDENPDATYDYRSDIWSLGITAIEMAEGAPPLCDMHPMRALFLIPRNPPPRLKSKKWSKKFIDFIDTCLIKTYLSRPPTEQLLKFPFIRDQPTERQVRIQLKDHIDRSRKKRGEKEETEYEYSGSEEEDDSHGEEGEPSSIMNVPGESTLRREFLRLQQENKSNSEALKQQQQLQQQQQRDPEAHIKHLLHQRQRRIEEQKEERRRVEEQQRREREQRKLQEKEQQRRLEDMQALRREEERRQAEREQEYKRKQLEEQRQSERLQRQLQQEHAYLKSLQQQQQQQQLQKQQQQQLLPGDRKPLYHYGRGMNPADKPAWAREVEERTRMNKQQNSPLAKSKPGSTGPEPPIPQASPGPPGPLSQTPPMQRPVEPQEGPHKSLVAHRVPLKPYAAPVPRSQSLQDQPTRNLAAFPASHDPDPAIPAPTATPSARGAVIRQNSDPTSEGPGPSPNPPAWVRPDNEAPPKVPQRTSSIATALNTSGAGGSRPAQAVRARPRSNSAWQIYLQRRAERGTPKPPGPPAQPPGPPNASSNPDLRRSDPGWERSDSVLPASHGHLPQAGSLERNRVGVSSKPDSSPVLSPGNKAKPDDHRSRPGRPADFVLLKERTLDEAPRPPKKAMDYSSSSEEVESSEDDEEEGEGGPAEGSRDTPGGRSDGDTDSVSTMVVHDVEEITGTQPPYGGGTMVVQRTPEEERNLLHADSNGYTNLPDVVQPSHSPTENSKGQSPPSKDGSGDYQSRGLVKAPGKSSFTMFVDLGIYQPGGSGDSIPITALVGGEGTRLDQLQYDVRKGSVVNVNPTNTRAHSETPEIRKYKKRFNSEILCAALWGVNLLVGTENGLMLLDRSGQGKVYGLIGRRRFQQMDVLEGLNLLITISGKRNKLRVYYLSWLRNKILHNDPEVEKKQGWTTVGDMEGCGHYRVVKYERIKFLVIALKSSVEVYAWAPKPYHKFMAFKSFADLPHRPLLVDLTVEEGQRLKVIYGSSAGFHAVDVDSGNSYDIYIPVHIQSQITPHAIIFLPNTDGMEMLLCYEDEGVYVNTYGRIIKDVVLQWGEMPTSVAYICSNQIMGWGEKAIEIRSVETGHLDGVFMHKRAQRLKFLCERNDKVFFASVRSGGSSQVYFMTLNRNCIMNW

Consider `Clc1cc(NCC2CC2)c2ncc(-c3ccc4[nH]ncc4c3)n2n1` [compound 2, 6-Chloro-N-(cyclopropylmethyl)-3-(1H-indazol-5-yl)imidazo[1,2-b]pyridazin-8-amine], for which the remaining binding at 1 µM on NEK3 worked out at 93%; on ERK4, 100%; on DYRK1B it was 1%; on MINK, 72%; at STK36 it was 91%; at YANK1, 95%. The remaining binding at 1 µM came out at 99% on MAP3K1 and 62% on DMPK2.
Take `O=C(CN1CCOCC1)N[C@H]1CC[C@H](Nc2cc(Cl)nn3c(-c4ccc5[nH]ncc5c4)cnc23)CC1` [compound 26]: the remaining binding at 1 µM on NEK3 was found to be 88%; on ERK4, 99%; at DYRK1B, 0.85%; at MINK it was 57%; at STK36, 95%; at YANK1, 98%. Further, the remaining binding at 1 µM at MAP3K1 stood at 92%; at DMPK2 it was 81%.
Take `CN1CCC(CNc2cc(Cl)nn3c(-c4cc5nc(Nc6ccccc6)[nH]c5cc4F)cnc23)CC1` [compound 31, 6-Chloro-3-(6-fluoro-2-(phenylamino)-1H-benzo[d]imidazol-5-yl)-N-((1-methylpiperidin-4-yl)methyl)imidazo[1,2-b]pyridazin-8-amine]: the remaining binding at 1 µM at NEK3 worked out at 100%; on ERK4, 93%; on DYRK1B it was 63%; on MINK it was 87%; on STK36, 93%; at YANK1, 73%. The remaining binding at 1 µM amounted to 89% at MAP3K1 and 100% at DMPK2.

The values are drawn from article PMC6437697 (Journal of Medicinal Chemistry, 2019).
